Data on 13 compounds can be found in PMC12428237, “Study on the Calcium Transport-Promoting Property and Mechanism of the Peptide–Calcium Complex DEEENDQVK–Ca Based on a Caco-2 Monolayer Model” (Foods, 2025).

Read-outs that look alike come from different tables or passages of the source.

For series [1], the system named is Caco-2 monolayer. The conditions noted are these: cited from earlier work; for increase of intestinal calcium transport compared with the control group: within 30 min. The protocol: With 1~2 mg/mL of DK, the tran ... || This study’s results align with earlier findings regarding peptide–calcium complexes.
Series [2] relates to Caco-2 monolayer. The series can be described thus: Fluo-4 AM fluorescence imaging of intracellular calcium influx. Format: cell-based, human. Conditions: samples containing 150 μg/mL calcium, 24 h, Fluo-4 AM 4 μmol/L, confocal microscope. As for the experimental part:
Fluorescence imaging based on intracellular calcium influx was conducted to assess the calcium transport-promoting effect in the Caco-2 monolayer following the method of Men et al.. Log-phase cells were seeded at 1.5 × 10^5 cells/well in 35 mm laser confocal dishes and gently agitated to ensure uniform distribution. Cultures were maintained at 37 °C in 5% CO2 with daily medium replacement until confluent monolayers formed. Subsequently, CaCl2, DK + CaCl2, and DK–Ca solutions (each containing 150 μg/mL calcium) were added separately. The group without an added sample served as the control group. Following 24 h of incubation, the cells were washed thrice with prewarmed calcium-/magnesium-free HBSS buffer (pH 7.2). Under light-protected conditions, 200 µL of Fluo-4 AM (4 μmol/L) was applied to cover the cells. Following 30 min incubation at 37 °C and subsequent washes, cells were dark-adapted for 10 min at room temperature for de-esterification. Imaging was conducted using a confocal microscope (excitation at 496 nm, Zeiss LSM980 Airyscan2, Carl Zeiss, Germany ), followed by quantification of the fluorescence intensity with ImageJ 1.54 g software.
For orientation: A change in cytosolic calcium serves as a functional read-out for many receptors and channels.

Series [3] concerns Caco-2 monolayer. The series can be described thus: Calcium transport assay in Caco-2 monolayer model. Format: cell-based, human. Conditions: 7.5 mM CaCl2 on AP side, AP to BL, HBSS pH 7.4, 37 °C, 120 min, calcium colorimetric kit 575 nm; mean ± SD, n = 3. As for the experimental part: (§1) Caco-2 cells (passages 15–30) were seeded at 1 × 10^5 cells/mL in Transwell chambers (12 mm, 0.4 μm pores, polycarbonate membrane, 1.12 cm^2 area) to establish a Caco-2 monolayer model. The culture medium (0.5 mL in the apical and 1.5 mL in the basolateral) was refreshed every 48 h (first week), then daily (next two weeks). The integrity of the Caco-2 cell monolayer model was verified by the following multiple indicators: Transepithelial electrical resistance (TEER) was monitored every 48 h using an epithelial voltohmmeter (RE1600, Beijing Jingong Hongtai Technology Co., Ltd., Beijing, China). Alkaline phosphatase (ALP) activity was measured on days 8, 12, 14, 16, and 21 after inoculation utilizing an ALP assay kit, following the manufacturer’s protocol. Transepithelial permeability was evaluated using sodium fluorescein following the method of Qiu et al..
Caco-2 monolayer models with a TEER value exceeding 500 Ω·cm^2 are permitted for calcium transport studies. Following three sequential washes with Hank’s balanced salt solution (HBSS; calcium/magnesium-free, pH 7.4), monolayers were equilibrated at 37 °C for 30 min. Afterward, the Transwell chambers were moved to fresh receiver plates for transport assays.
Concentration-dependent CaCl2 transport assay: 0.5 mL of CaCl2 solution (1.5~10 mM) was added to the apical (AP) side. The basolateral (BL) side contained 1.5 mL prewarmed HBSS. After 120 min incubation at 37 °C and 5% CO2, the BL side solution was collected for calcium transport analysis.
Time-dependent CaCl2 transport assay: The AP side contained 0.5 mL of 7.5 mM CaCl2 solution, and the BL side 1.5 mL prewarmed HBSS. At designated intervals (30~180 min), 1 mL BL side solution was collected and replaced with equal volumes of fresh HBSS buffer to maintain consistency.
Different concentrations of DK solution (0.5~2 mg/mL, 0.5 mL) containing 7.5 mM CaCl2, or 0.5 mL of DK–Ca solution (0.5~2 mg/mL), were added to the AP side. The BL side contained 1.5 mL prewarmed HBSS. The control group contained 7.5 mM CaCl2 alone on the AP side. At designated intervals (30~180 min), 1 mL BL side solution was collected and replaced with equal volumes of fresh HBSS buffer to maintain consistency.
Calcium concentration in the collected sample was measured using a calcium colorimetric assay kit at 575 nm. Transported calcium was calculated as follows:(1) Tn=1.5Cn+1×∑k=1n-1Ck […]

The test system of series [4] is Caco-2 monolayer. The experiment in a line: Effect of dietary components (vitamin D3, phytic acid) on calcium transport in Caco-2 monolayer. Format: cell-based, human. The conditions noted are these: 120 min, control without dietary component, n = 3. The protocol:
Vitamin D3 (0.5 μmol/L, dissolved in 0.1% ethanol) or phytic acid (1.8 mM, with a of phytic acid/calcium molar ratio of 0.24) was added to the AP side to evaluate the effect of dietary components on calcium transport. The group without an added dietary component served as the control group. After 120 min incubation, the BL side solution was collected for calcium transport analysis.

The next series deals with Caco-2 cells. The series can be described thus: MTT cell viability assay. Format: cell-based, human. Conditions: 24 h, concentration range 0~5 mg/mL, n = 3. The protocol:
Caco-2 cells were maintained in complete DMEM medium containing 20% (v/v) FBS, 1% non-essential amino acids, and penicillin-streptomycin (100 U/mL−100 μg/mL) at 37 °C under 5% CO2 atmosphere, with medium replacement every 48 h. At 80–90% confluency, cells were seeded into 96-well plates (1 × 10^4 cells/well). After 24 h of incubation, the original medium was exchanged for a new solution containing CaCl2 (0~5 mg/mL), DK (0~5 mg/mL), DK + CaCl2 (1:1 w/w, 0~5 mg/mL), DK–Ca (0~5 mg/mL), 2-APB (0~75 μmol/L), cytochalasin D (0~2 μg/mL), and mβCD (0~5 mmol/L). After 24 h of incubation, the cell viability was assessed by MTT [21].
(Formazan colour is commonly taken as a measure of viable cells.)

Series [5] concerns Caco-2 monolayer. The experiment in a line: Transepithelial permeability of sodium fluorescein (monolayer integrity). Format: in vitro ADME, human. Conditions: Transwell, after 21 days of differentiation, mean ± SD. The protocol:
as §1

The conditions of series [6]: cited from earlier work. The text has this:
Dietary calcium supplementation offers a direct solution to calcium deficiency. However, traditional calcium supplements (e.g., calcium carbonate) suffer from limitations such as low bioavailability and gastrointestinal irritation, which lead to reduced efficacy. […] This enhanced performance is primarily attributed to the peptide ... || This study’s results align with earlier findings regarding peptide–calcium complexes.

A further series relates to Caco-2 monolayers. The conditions noted are these: 120 min; cited from earlier work.

Procedure for Caco-2 monolayers: To assess component changes in DK–Ca after 120 min of calcium-promoting transport, solutions collected from the AP and BL sides of the monolayer were subjected to RP-HPLC analysis.

Consider `[Ca+2].[Cl-].[Cl-]` [CaCl2], for which, in the series with Caco-2 monolayer [1], the “decrease of calcium absorption by phytic acid” value is 79.86%. For the same compound, the “fluorescence intensity (intracellular calcium influx) compared to the control group” value in the series on Caco-2 monolayer [2] is recorded as “significantly increased”. In the series with Caco-2 monolayer [3], the transported calcium is reported as 27.55 ± 1.20 μg/well. Moreover, the “reduction of transported calcium by phytic acid compared to the control group” value in the series with Caco-2 monolayer [4] (phytic acid 1.8 mM (phytic acid/calcium molar ratio 0.24) on AP side) is 49.11%. Also, the “increase of transported calcium by vitamin D3 compared to the control group” value with Caco-2 monolayer [4] (vitamin D3 0.5 μmol/L on AP side) is reported as 22.68%.
As for `C=C1[C@@H](C)[C@H]2[C@H](Cc3ccccc3)NC(=O)[C@]23[C@H](OC(C)=O)/C=C/[C@@](C)(O)C(=O)[C@@H](C)C/C=C/[C@H]3[C@@H]1O` [cytochalasin D, Cytochalasin D], in the series on Caco-2 cells, the “cytotoxicity to Caco-2 cells” value is reported as “no cytotoxicity”.
`O=C([O-])c1ccccc1-c1c2ccc(=O)cc-2oc2cc([O-])ccc12.[Na+].[Na+]` [sodium fluorescein]: the “apparent permeability coefficient (Papp)” value is recorded as 7.17±0.22 ×10^-7 cm/s with Caco-2 monolayer [5] (30 min), 7.47±0.25 ×10^-7 cm/s in the series on Caco-2 monolayer [5] (60 min), 7.56±0.64 ×10^-7 cm/s with Caco-2 monolayer [5] (90 min) and 8.35 ± 0.15 ×10-7 cm/s in the series on Caco-2 monolayer [5] (120 min).
Turning to “AHVGMSGEEPE [rice protein-derived peptide]”, the calcium-binding capacity in series [6] was 55.69 mg/g.
Take “AHVGMSGEEPE-Ca [AHV-Ca, rice peptide–calcium complex]”: in the series on Caco-2 monolayer [1] (Caco-2 monolayers), the transported calcium is 61.75 ± 13.23 μg/well and the “transported calcium, fold versus CaCl2” value was 2.16 fold.
“DHTKE [DHTKE–calcium complex, egg white hydrolysate-derived DHTKE–calcium complex]”: the “increase of transported calcium compared to the calcium-free control group” value in the series on Caco-2 monolayer [1] is “seven-fold”.
Take “FDHIVY [tilapia collagen-derived peptide]”: the “increase of intestinal calcium transport compared with the control group” value (“increase of intestinal calcium transport” for short) in the series on Caco-2 monolayer [1] was 202%.
For the compound “GPAGPHGPVG [tilapia collagen-derived peptide]”, the “increase of intestinal calcium transport” value with Caco-2 monolayer [1] was 89%.
With LVFL, the calcium-binding capacity in series [6] is 79.50 mg/g.
For VLPVPQK, in series [6], the calcium-binding capacity was 129.46 mg/g.
As for YGTGL, the calcium-binding capacity in series [6] is 76.03 mg/g.
Regarding “YQEPVIAPKL [tilapia collagen-derived peptide]”, in the series on Caco-2 monolayer [1], the “increase of intestinal calcium transport” value was 130%.
With YQEPVPVRGPFPIIV, the “cleavage after culture in Caco-2 monolayers” value in the series with Caco-2 monolayers is “cleaved into […] and […]”.
